The values below come from PMC9029695, “5-Aryl-1,3,4-oxadiazol-2-amines Decorated with Long Alkyl and Their Analogues: Synthesis, Acetyl- and Butyrylcholinesterase Inhibition and Docking Study” (Pharmaceuticals, 2022).

The term IC50 denotes the concentration needed to halve the response being measured. Low readings indicate inhibition by little substance, high ones a need for much substance.

The target in assay [1] is T1, AChE from electric eel (EeAChE) (Electrophorus electricus, UniProt O42275).
T1 construct: purchased Merck (Prague, Czech Republic)
Nature of the assay: Inhibition of AChE, modified Ellman's spectrophotometric method. In kind it is biochemical, electric eel (Electrophorus electricus L.). The conditions noted are these: for IC50: EeAChE, Ellman's method, mean ± SD, n = three independent experiments. The source says: (§1) The heterocycles 3 were screened for their ability to interfere with the function of AChE from electric eel (EeAChE) and BChE from equine serum (EqBChE) using Ellman’s method (Table 1). Their activities are expressed as the concentration producing 50% inhibition of enzymatic activity (IC50). In addition, we calculated selectivity indexes (SI) that quantify the selectivity for AChE as more inhibited cholinesterase. SI is the ratio of IC50 for BChE/IC50 for AChE.
(§2) Enzyme inhibition activity of 3 quantified as IC50 values was determined spectrophotometrically using modified Ellman’s method. […] The enzyme activity is measured indirectly by determination of 5-mercapto-2-nitrobenzoic acid ion formed after reaction of the thiol reagent 5,5′-disulfanediyl-bis(2-nitrobenzoic acid) (DTNB) and thiocholine, a product of acetylthiocholine (ATCh) and butyrylthiocholine (BTCh) as substrates for hydrolysis by AChE and BChE, respectively.
(§3) The enzyme activity in final reaction mixture (2000 µL) was 0.2 U/mL, concentration of ATCh (or BTCh) 40 µM and concentration of DTNB 100 µM for all reactions. The compounds 3 were dissolved in DMSO and then diluted in demineralized water (conductivity 3 μS, equipment supplier BKG Water Treatment, Hradec Králové, Czech Republic) to the concentration of 1000 µM. […] The final concentration of DMSO was 0.2%. All experiments were carried in triplicates. The average values of reaction rate (v0-uninhibited reaction, vi-inhibited reaction) were used for construction of the dependence v0/vi vs. concentration of inhibitor. From obtained equation of regression curve, IC50 values were calculated.
(§4) Acetylcholinesterase was used from electric eel (Electrophorus electricus L.; EeAChE) and butyrylcholinesterase originated from equine serum (EqBChE).

Assay [2] addresses T2, BChE from equine serum (EqBChE) (Equus caballus, UniProt P81908).
T2 construct: butyrylcholinesterase originated from equine serum (EqBChE); purchased Merck (Prague, Czech Republic); host or cells: equine serum
Nature of the assay: Inhibition of BChE, modified Ellman's spectrophotometric method. In kind it is biochemical. Conditions: EqBChE, Ellman's method; mean ± SD, n = three independent experiments.
From the text: as §1, §2, §3, §4
In general terms: In Ellman's method for cholinesterases, released thiocholine reacts with DTNB.

T1 sequence (O42275 24-633): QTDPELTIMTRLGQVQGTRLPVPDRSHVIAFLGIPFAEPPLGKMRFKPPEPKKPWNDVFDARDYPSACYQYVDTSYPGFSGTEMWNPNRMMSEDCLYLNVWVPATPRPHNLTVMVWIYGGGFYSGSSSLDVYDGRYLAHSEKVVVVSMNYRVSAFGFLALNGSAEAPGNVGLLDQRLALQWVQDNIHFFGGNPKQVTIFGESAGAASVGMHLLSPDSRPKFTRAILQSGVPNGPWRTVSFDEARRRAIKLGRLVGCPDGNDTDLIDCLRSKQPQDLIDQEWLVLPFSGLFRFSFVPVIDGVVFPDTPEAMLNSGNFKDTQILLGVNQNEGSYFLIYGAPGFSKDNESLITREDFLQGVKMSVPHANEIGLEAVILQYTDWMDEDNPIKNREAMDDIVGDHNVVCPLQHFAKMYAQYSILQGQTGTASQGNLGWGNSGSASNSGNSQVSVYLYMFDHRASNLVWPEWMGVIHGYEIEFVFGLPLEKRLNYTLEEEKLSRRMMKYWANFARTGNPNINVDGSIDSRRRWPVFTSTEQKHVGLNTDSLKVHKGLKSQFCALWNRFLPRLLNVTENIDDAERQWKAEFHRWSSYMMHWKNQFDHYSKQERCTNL
T2 sequence (P81908 whole entry): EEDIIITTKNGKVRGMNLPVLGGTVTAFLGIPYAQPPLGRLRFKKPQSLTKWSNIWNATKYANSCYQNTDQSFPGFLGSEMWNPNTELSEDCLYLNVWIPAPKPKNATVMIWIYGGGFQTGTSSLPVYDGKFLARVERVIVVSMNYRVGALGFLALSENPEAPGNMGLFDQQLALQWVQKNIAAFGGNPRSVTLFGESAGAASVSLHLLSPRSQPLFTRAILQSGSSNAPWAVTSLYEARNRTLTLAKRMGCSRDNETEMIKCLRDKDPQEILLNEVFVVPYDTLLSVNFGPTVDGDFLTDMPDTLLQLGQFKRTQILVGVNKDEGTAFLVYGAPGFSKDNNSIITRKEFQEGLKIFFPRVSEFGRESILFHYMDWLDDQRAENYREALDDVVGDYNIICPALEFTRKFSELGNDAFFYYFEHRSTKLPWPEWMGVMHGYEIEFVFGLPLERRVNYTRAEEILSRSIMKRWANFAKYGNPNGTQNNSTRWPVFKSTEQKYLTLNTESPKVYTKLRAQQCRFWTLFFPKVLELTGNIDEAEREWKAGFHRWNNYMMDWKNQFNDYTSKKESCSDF

Consider `CCCCCCCCCCCCNc1nnc(-c2ccccc2)o1` [3a, N-Dodecyl-5-phenyl-1,3,4-oxadiazol-2-amine], for which, in assay [1], the IC50 worked out at 40.1 ± 0.54 µM and the “BChE/AChE Ratio (selectivity index, IC50 for BChE/IC50 for AChE)” value was determined as 3.7. In assay [2], this compound showed an IC50 of 149 ± 1.69 µM.

For `CCCCCCCCCCCCNc1nnc(-c2ccc(C)cc2)o1` [3b, N-Dodecyl-5-(p-tolyl)-1,3,4-oxadiazol-2-amine], the IC50 in assay [1] was determined as 34.6 ± 0.96 µM; in assay [2], 90 ± 2.35 µM. For the same compound, the “BChE/AChE Ratio (selectivity index, IC50 for BChE/IC50 for AChE)” value in assay [1] is recorded as 2.6.

As for `CCCCCCCCCCCCNc1nnc(-c2ccc(OC)cc2)o1` [3c, N-Dodecyl-5-(4-methoxyphenyl)-1,3,4-oxadiazol-2-amine], in assay [1], the IC50 is 33.86 ± 0.27 µM and the “BChE/AChE Ratio (selectivity index, IC50 for BChE/IC50 for AChE)” value was determined as 6.6. The compound also displayed an IC50 in assay [2] of 225 ± 11 µM.

For `CCCCCCCCCCCCNc1nnc(-c2ccc(C(C)(C)C)cc2)o1` [3d, 5-[4-(tert-Butyl)phenyl]-N-dodecyl-1,3,4-oxadiazol-2-amine], the IC50 turned out to be 65.2 ± 0.72 µM in assay [1] and 152 ± 6.02 µM in assay [2]. Further, in assay [1], the “BChE/AChE Ratio (selectivity index, IC50 for BChE/IC50 for AChE)” value was determined as 2.3.

For the compound `CCCCCCCCCCCCNc1nnc(-c2ccc([N+](=O)[O-])cc2)o1` [3e, N-Dodecyl-5-(4-nitrophenyl)-1,3,4-oxadiazol-2-amine], in assay [1], the IC50 was found to be 70.46 ± 0.59 µM and the “BChE/AChE Ratio (selectivity index, IC50 for BChE/IC50 for AChE)” value is listed as 1.5. This compound gave an IC50 in assay [2] of 105.2 ± 0.94 µM.

For the compound `CCCCCCCCCCCCNc1nnc(-c2ccc(N(C)C)cc2)o1` [3f, 5-[4-(Dimethylamino)phenyl]-N-dodecyl-1,3,4-oxadiazol-2-amine], in assay [1], the IC50 amounted to 87.99 ± 0.81 µM and the “BChE/AChE Ratio (selectivity index, IC50 for BChE/IC50 for AChE)” value is recorded as 3.6. In addition, the 50% inhibitory concentration (IC50) in assay [2] was 316 ± 6.22 µM.

For `CCCCCCCCCCCCNc1nnc(-c2ccc(F)cc2)o1` [3g, N-Dodecyl-5-(4-fluorophenyl)-1,3,4-oxadiazol-2-amine], the half-maximal inhibitory concentration (IC50) in assay [1] came to 36.7 ± 1.59 µM; in assay [2], 266.7 ± 2.59 µM. In addition, the “BChE/AChE Ratio (selectivity index, IC50 for BChE/IC50 for AChE)” value in assay [1] was found to be 7.3.

For the compound `CCCCCCCCCCCCNc1nnc(-c2ccc(Cl)cc2)o1` [3h, 5-(4-Chlorophenyl)-N-dodecyl-1,3,4-oxadiazol-2-amine], in assay [1], the IC50 is 50.2 ± 1.88 µM and the “BChE/AChE Ratio (selectivity index, IC50 for BChE/IC50 for AChE)” value is recorded as 8.8. Further, in assay [2], the IC50 amounted to 444 ± 8.5 µM.

In the case of `CCCCCCCCCCCCNc1nnc(-c2ccc(Br)cc2)o1` [3i, 5-(4-Bromophenyl)-N-dodecyl-1,3,4-oxadiazol-2-amine], in assay [1], half-maximal inhibition (IC50) was put at 40 ± 0.98 µM and the “BChE/AChE Ratio (selectivity index, IC50 for BChE/IC50 for AChE)” value is given as 9.2. 369 ± 5.82 µM corresponded to half-maximal inhibition in assay [2] (IC50).

As for `CCCCCCCCCCCCNc1nnc(-c2ccc(I)cc2)o1` [3j, N-Dodecyl-5-(4-iodophenyl)-1,3,4-oxadiazol-2-amine], in assay [1], half-maximal inhibition (IC50) was put at 37.8 ± 1.83 µM and the “BChE/AChE Ratio (selectivity index, IC50 for BChE/IC50 for AChE)” value came to 12.7. The compound also gave an IC50 in assay [2] of 482 ± 6.15 µM.

Regarding `CCCCCCCCCCCCNc1nnc(-c2cc([N+](=O)[O-])cc([N+](=O)[O-])c2)o1` [3k, 5-(3,5-Dinitrophenyl)-N-dodecyl-1,3,4-oxadiazol-2-amine], in assay [1], the IC50 turned out to be 40.98 ± 0.11 µM and the “BChE/AChE Ratio (selectivity index, IC50 for BChE/IC50 for AChE)” value stood at 9.4. Also, the midpoint of inhibition in assay [2], the IC50, lay at 384 ± 5.34 µM.

For the compound `CCCCCCCCCCCCNc1nnc(-c2ccncc2)o1` [3l, N-Dodecyl-5-(pyridin-4-yl)-1,3,4-oxadiazol-2-amine], the “fold lower AChE inhibition, oxadiazole vs. thiadiazole 3t” value in assay [1] (3t vs. 3l) was determined as 3.9 ×. The IC50 was 50.2 ± 0.79 µM in assay [1] and 223 ± 1.54 µM in assay [2]. Moreover, in assay [1], the “BChE/AChE Ratio (selectivity index, IC50 for BChE/IC50 for AChE)” value was determined as 4.4.

As for `CCCCCCCCCCCCNc1nnc(-c2cccnc2)o1` [3m, N-Dodecyl-5-(pyridin-3-yl)-1,3,4-oxadiazol-2-amine], the results for the half-inhibitory concentration (IC50) in assay [1] and in assay [2] were 64.2 ± 0.93 µM and 369 ± 3.83 µM, respectively. Also, the “BChE/AChE Ratio (selectivity index, IC50 for BChE/IC50 for AChE)” value in assay [1] was found to be 5.8.

As to `CCCCCCCCCCCCNc1nnc(-c2ccccn2)o1` [3n, N-Dodecyl-5-(pyridin-2-yl)-1,3,4-oxadiazol-2-amine], in assay [1], half-maximal inhibition (IC50) was put at 60.5 ± 2.42 µM and the “BChE/AChE Ratio (selectivity index, IC50 for BChE/IC50 for AChE)” value came to 5.2. In addition, the IC50 in assay [2] was determined as 315.4 ± 1.96 µM.

In the case of `CCCCCCCCCCCCNc1nnc(-c2ccncn2)o1` [3o, N-Dodecyl-5-(pyrimidin-4-yl)-1,3,4-oxadiazol-2-amine], in assay [1], the IC50 turned out to be 45.5 µM and the “BChE/AChE Ratio (selectivity index, IC50 for BChE/IC50 for AChE)” value amounted to 6.6. In addition, in assay [2], the IC50 amounted to 298.3 ± 2.19 µM.

Consider `CCCCCCCCCCCCNc1nnc(-c2cnccn2)o1` [3p, N-Dodecyl-5-(pyrazin-2-yl)-1,3,4-oxadiazol-2-amine], for which, in assay [1], 92.1 ± 6.11 µM corresponded to half-maximal inhibition (IC50) and the “BChE/AChE Ratio (selectivity index, IC50 for BChE/IC50 for AChE)” value is 4.9. Also, in assay [2], the IC50 stood at 452 ± 59.3 µM.

Consider `CCCCCCCCCCCCNc1nnc(-c2ccnc(Br)c2)o1` [3q, 5-(2-Bromopyridin-4-yl)-N-dodecyl-1,3,4-oxadiazol-2-amine], for which the IC50 is 73.4 ± 2.06 µM in assay [1] and 224.2 ± 1.29 µM in assay [2]. Besides, the “BChE/AChE Ratio (selectivity index, IC50 for BChE/IC50 for AChE)” value in assay [1] worked out at 3.1.

As for `CCCCCCCCCCCCNc1nnc(-c2ccnnc2)o1` [3r, N-Dodecyl-5-(pyridazin-4-yl)-1,3,4-oxadiazol-2-amine], in assay [1], inhibition was half-maximal at 81.5 ± 4.14 µM (IC50) and the “BChE/AChE Ratio (selectivity index, IC50 for BChE/IC50 for AChE)” value is 2.9. For the same compound, in assay [2], half-maximal inhibition (IC50) was put at 238 ± 13.8 µM.

Turning to `CCCCCCCCCCCCSc1nnc(-c2ccncc2)o1` [3s, 2-(Dodecylthio)-5-(pyridin-4-yl)-1,3,4-oxadiazole], the IC50 in assay [1] was 91.6 ± 7.14 µM; in assay [2] it was over 500 µM. For the same compound, the “BChE/AChE Ratio (selectivity index, IC50 for BChE/IC50 for AChE)” value in assay [1] is on record as over 5.5.

With `CCCCCCCCCCCCc1nnc(-c2ccncc2)o1` [3u, 2-Dodecyl-5-(pyridin-4-yl)-1,3,4-oxadiazole], in assay [1], the IC50 came to 99.2 ± 3.26 µM and the “BChE/AChE Ratio (selectivity index, IC50 for BChE/IC50 for AChE)” value is recorded as 2.9. This compound came in with an IC50 in assay [2] of 289 ± 1.55 µM.
